Laboratory results as given in ChEMBL document CHEMBL4308889, “Resorcinol alkyl glucosides as potent tyrosinase inhibitors” (Bioorg Med Chem Lett, 2019).

target: T1, Tyrosinase (Agaricus bisporus, UniProt O42713); experiment: Inhibition of mushroom tyrosinase using TBC as substrate by spectrophotometric method
T1 sequence (O42713 whole entry): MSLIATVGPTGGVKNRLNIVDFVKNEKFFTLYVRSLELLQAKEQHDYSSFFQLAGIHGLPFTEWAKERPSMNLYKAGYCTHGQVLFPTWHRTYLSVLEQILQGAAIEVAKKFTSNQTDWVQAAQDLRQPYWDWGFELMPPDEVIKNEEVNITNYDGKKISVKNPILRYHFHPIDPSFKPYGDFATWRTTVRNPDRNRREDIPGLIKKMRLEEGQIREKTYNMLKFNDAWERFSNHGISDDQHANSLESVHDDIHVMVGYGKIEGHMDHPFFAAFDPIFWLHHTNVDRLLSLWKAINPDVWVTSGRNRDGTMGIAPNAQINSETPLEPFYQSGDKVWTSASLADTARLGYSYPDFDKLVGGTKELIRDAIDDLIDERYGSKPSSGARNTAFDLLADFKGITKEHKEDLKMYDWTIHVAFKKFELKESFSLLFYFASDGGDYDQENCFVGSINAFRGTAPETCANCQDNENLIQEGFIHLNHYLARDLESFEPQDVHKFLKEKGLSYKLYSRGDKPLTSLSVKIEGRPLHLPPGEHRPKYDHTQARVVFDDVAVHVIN

IC50	SMILES
0.39 µM	OC[C@H]1O[C@@H](OCCCCCCCCCCCCCCc2ccc(O)cc2O)[C@H](O)[C@@H](O)[C@@H]1O
35.9 µM	OC[C@H]1O[C@@H](OCCc2ccc(O)cc2O)[C@H](O)[C@@H](O)[C@@H]1O
0.63 µM	OC[C@H]1O[C@@H](OCCCCCCc2ccc(O)cc2O)[C@H](O)[C@@H](O)[C@@H]1O
0.41 µM	OC[C@H]1O[C@@H](OCCCCCCCCCCc2ccc(O)cc2O)[C@H](O)[C@@H](O)[C@@H]1O
1.36 µM	OC[C@H]1O[C@@H](OCCCCc2ccc(O)cc2O)[C@H](O)[C@@H](O)[C@@H]1O
3.62 µM	OC[C@H]1O[C@@H](OCCCc2ccc(O)cc2O)[C@H](O)[C@@H](O)[C@@H]1O
0.61 µM	CCCCCCc1ccc(O)cc1O [HEXYLRESORCINOL]

target: T2, Tyrosinase (Homo sapiens, UniProt P14679); experiment: Inhibition of tyrosinase (unknown origin) using L-DOPA as substrate preincubated with substrate for 5 mins followed by enzyme addition and measured immediately by spectrophotometric method
T2 sequence (P14679 whole entry): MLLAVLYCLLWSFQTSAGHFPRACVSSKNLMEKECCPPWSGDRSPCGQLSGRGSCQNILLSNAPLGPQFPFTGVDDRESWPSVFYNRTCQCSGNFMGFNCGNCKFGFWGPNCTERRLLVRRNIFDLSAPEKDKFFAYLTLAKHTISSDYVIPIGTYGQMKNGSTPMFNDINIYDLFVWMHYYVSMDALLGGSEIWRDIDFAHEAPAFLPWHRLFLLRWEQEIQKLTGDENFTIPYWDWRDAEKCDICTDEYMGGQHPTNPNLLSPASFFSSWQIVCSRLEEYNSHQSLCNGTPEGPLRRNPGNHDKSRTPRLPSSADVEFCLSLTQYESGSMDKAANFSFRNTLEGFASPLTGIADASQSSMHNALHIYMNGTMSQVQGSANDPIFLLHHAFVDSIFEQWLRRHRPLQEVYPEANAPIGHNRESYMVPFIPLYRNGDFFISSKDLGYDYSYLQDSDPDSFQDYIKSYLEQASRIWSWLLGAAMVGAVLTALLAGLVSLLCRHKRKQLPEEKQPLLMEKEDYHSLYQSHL

IC50	SMILES
417 µM	OC[C@H]1O[C@@H](Oc2ccc(O)cc2O)[C@H](O)[C@@H](O)[C@@H]1O
